Tests used:
[1] = system: primary mesenchymal stromal cells; assay: MTS cell viability, primary mesenchymal stromal cells; format: cell-based; settings: 10 μM, 24, 48 and 72 hours
Procedure: (§1) Referring to FIG. 11, illustrates that triazole analogues were not toxic for cells. Cancer SW480 cells (left panel) and primary mesenchymal stromal cells (right panel) were incubated with DMSO solvent alone (control), 10 μM ICZ, compound 5, compound 3 or ketoconazole (KCZ) for 24, 48 and 72 hours as indicated. At the end of each time point, MTS tetrazolium compound (3-(4,5-dimethylthiazol-2-yl)-5-(3-carboxymethoxyphenyl)-2-(4-sulfophenyl)-2H-tetrazolium) was added for 1 hour to evaluate the amounts of viable cells. The absorbance value was measured at 490 nm. The mean±S.D. are shown (n=6). **, p<0.01.

[2] = system: Cancer SW480 cells; assay: MTS cell viability, SW480 cells; format: cell-based; settings: 10 μM, 24, 48 and 72 hours
Procedure: as §1

[3] = biological target: T1, tripartite VAP-A, ORP3 and Rab7 (VOR) protein complex (Homo sapiens, UniProt Q9H4L5); assay: VOR complex integrity in whole SW480 cells (anti-ORP3 immunoisolation, Rab7 co-immunoisolation); format: cell-based; settings: 10 μM, 5 hours
T1 construct: solubilized and subjected to immunoisolation (IS) using anti-ORP3 Ab followed by Protein G-coupled magnetic beads; endogenous in cells; host or cells: SW480 cells
T1 sequence (Q9H4L5 1-887): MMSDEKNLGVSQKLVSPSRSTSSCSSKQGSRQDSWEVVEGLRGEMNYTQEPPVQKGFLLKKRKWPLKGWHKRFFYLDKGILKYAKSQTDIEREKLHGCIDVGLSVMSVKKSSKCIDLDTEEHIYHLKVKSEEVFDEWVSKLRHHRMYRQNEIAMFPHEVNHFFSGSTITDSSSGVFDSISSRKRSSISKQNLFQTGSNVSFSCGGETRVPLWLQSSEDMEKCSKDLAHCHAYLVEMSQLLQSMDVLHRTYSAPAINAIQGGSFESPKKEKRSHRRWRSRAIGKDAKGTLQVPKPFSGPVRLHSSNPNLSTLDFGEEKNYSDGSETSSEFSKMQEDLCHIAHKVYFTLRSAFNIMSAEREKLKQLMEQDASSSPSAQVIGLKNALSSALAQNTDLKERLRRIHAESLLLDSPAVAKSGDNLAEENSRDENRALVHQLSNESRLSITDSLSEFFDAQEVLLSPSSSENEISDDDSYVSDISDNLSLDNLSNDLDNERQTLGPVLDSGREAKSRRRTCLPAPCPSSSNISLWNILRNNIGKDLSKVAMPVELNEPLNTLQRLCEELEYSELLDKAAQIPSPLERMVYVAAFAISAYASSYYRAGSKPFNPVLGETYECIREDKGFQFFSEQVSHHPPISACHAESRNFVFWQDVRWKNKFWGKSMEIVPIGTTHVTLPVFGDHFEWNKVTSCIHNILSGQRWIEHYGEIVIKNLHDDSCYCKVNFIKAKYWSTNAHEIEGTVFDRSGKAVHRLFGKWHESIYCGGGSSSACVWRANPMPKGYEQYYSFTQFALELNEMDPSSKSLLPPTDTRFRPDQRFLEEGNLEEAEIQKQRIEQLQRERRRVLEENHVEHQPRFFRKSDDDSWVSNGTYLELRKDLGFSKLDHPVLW
T1 sequence (Q9P0L0 1-249 partner): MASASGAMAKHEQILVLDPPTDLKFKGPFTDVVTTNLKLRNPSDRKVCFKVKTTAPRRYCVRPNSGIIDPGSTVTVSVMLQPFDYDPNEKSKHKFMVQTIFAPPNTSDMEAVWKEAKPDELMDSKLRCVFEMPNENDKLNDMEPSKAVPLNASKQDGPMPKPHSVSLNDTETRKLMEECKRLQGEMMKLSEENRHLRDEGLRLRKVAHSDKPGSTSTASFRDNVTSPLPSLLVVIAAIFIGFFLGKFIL
Procedure: SW480 cells were incubated with DMSO solvent alone (control), 10 μM ICZ, triazole compound 5, compound 3 or ketoconazole for 5 hours, solubilized and subjected to immunoisolation (IS) using anti-ORP3 Ab followed by Protein G-coupled magnetic beads. The input (1/50, for Rab7 only) and entire bound fractions were probed by immunoblotting for ORP3, VAP-A and Rab7. The Rab7/VAP-A ratios were quantified (n=3). The mean±S.D. are shown. P values are indicated.

[4] = system: HIV-1 integrase in HeLa cells; assay: Transport of HIV-1 integrase into the nucleoplasmic reticulum (IN-2 immunolabelling); format: cell-based; settings: 10 μM, 30 minutes pretreatment, HIV-Gag-iGFP infection 1 hour
Procedure: (A) HeLa cells were pretreated with 10 μM of drugs as indicated for 30 minutes before HIV-Gag-iGFP infection for 1 hour in the presence of drugs. As controls, DMSO was used (DMSO, HIV-infected cells; control, uninfected cells). Cells were fixed and processed for double immunolabelling for VAP-A and HIV IN (IN-2). […] (B) HeLa cells expressing Rab7-RFP were treated as in panel A, and then double immunolabelled for SUN2 and IN-2. Scale bars, 10 (A) and 5 (B) μm.
Referring to FIG. 19A, B illustrates the quantification of IN-2 immunoreactivity in SUN2^+ NEI (A, 50 NEIs were assessed per experiment, n=3, individual values of each experiment is indicated) and the IN-2 nucleoplasm/cytoplasm ratio per cell (B, n=150 cells from three independent experiments) on HeLa cells treated with drugs as indicated (see FIG. 18B). Means±S.D. with individual values for each experiment (A) are shown. N.s., not significant; ***, p<0.001.

[5] = biological target: T1, tripartite VAP-A, ORP3 and Rab7 (VOR) protein complex; assay: VOR complex integrity in detergent SW480 cell lysates (anti-ORP3 immunoisolation, Rab7 co-immunoisolation); format: biochemical; settings: 10 μM, 30 minutes on ice
Procedure: Detergent SW480 cell lysates were incubated with DMSO solvent alone (control), 10 μM ICZ, triazole compound 5, compound 3 or ketoconazole for 30 minutes on ice, and then subjected to immunoisolation (IS) using anti-ORP3 Ab followed by Protein G-coupled magnetic beads. The input (1/50, for Rab7 only) and entire bound fractions were probed by immunoblotting for ORP3, VAP-A and Rab7. The Rab7/VAP-A ratios were quantified (n=3). The mean±S.D. are shown. P values are indicated. […] Referring to FIGS. 12A, 12B, 12C and 12D illustrate the effects of various triazole compounds on the VOR complex integrity. Detergent SW480 cell lysates were incubated with DMSO solvent alone (control), 2.5 μM (FIG. 12A), 5 μM (FIG. 12B), 7.5 μM (FIG. 12C) or 10 μM (FIG. 12D) ICZ and triazole compounds for 30 minutes on ice and then subjected to immunoisolation (IS) using anti-ORP3 Ab followed by Protein G-coupled magnetic beads. The entire bound fractions were probed by immunoblotting for ORP3, VAP-A and Rab7 (data not shown). The percent inhibition of Rab7 expression were quantified and compared to the control sample (dashed line).

[6] = system: SW480 cells; assay: EV-induced pro-metastatic morphological transformation; format: cell-based; settings: 10 μM, 10 minutes pre-treatment, EVs 1×10^9 particles/ml, 5 hours
Procedure: Referring to FIG. 9, illustrates that the triazole compound 5 inhibited EV-induced pro-metastatic morphological transformation. SW480 cells were pre-treated with DMSO solvent alone (control), 10 μM ICZ, triazole compound 5 or compound 3 for 10 minutes prior to incubation without or with EVs (1×10^9 particles/ml) derived from metastatic SW620 cells for 5 hours. Cell morphology was analyzed by confocal laser scanning microscopy upon CD9 immunolabelling (data not shown). Bar graphs show the percentage of cells harboring a rounded (left panel) or blebbed (right panel) morphology upon exposure to EVs. The mean±S.D. are shown. At least 50 cells were evaluated per condition and independent experiment (n=6).

[7] = system: SW480 cells; assay: Entry of Rab7+ late endosomes in SUN2+ NEI, confocal microscopy; format: cell-based; settings: 10 μM, 5 hours
Procedure: Referring to FIG. 8, illustrates that the triazole compound 5 inhibited the entry of Rab7^+ late endosomes in NEI. SW480 cells were incubated with DMSO (control), 10 μM ICZ, triazole compound 5, triazole compound 3 or ketoconazole (KCZ) for 5 hours prior to double immunolabelling for Rab7 and nuclear membrane protein SUN2 and the staining with cholesterol-binding compound filipin. Cells were analyzed by confocal laser scanning microscopy (left panel). Arrows indicate SUN2^+ NEI and arrowheads point to Rab7 and filipin-labelled cholesterol therein. […] The mean±S.D. are shown. P values are indicated. N.s., not significant. Scale bars, 5 μm.

[8] = system: SW480 cells; assay: Scratch wound healing assay, EV-induced migration; format: cell-based; settings: 10 μM, EVs from SW620 cells 7.5×10^8 particles/ml, 5 hours
Procedure: Referring to FIG. 16, illustrates images of the scratch wound healing assay of SW480 cells treated with 10 μM drugs (ICZ, compound 5) without or with EVs (7.5×10^8 particles/ml) derived from SW620 cells for 5 hours (upper panels). The mean±S.E.M. (n=2 independent experiments) is presented (lower panel).

[9] = system: HIV-Gag-iGFP infection of HeLa cells; assay: HIV-1 productive infection (HIV-Gag-iGFP expression); format: cell-based; settings: 10 μM pretreatment, infection 6 hours, then 24 hours in presence of drugs
Procedure: Referring to FIG. 20A-C, illustrates the impact of drugs on productive infection. HeLa cells pretreated with drugs as above before HIV-Gag-iGFP infection for 6 hours, washed, and incubated for 24 hours in the presence of drugs. Samples were processed either for immunocytochemistry or flow cytometry analyses. DMSO was used as solvent vehicle. […] Dashed line represents DMSO-treated, noninfected cells as a negative control. […] The percentage of GFP^+ cells as assessed by flow cytometry is plotted (C). Means±S.D. with individual values for each experiment are shown. Cy, cytoplasm; Pm, plasma membrane; n.s., not significant; ***, p<0.001.

[10] = system: SW480 cells; assay: Nuclear transfer of EV cargo (CD9-GFP); format: cell-based; settings: 10 μM, 10 minutes pre-treatment, 5-hour incubation with EVs
Procedure: SW480 cells were pre-treated for 10 minutes with DMSO (control), 10 μM ICZ, triazole compound 5, triazole compound 3 or ketoconazole (KCZ) prior to 5-hour incubation with melanoma cell-derived CD9-green fluorescent protein (GFP)^+ EVs in the absence or presence of drugs. Recipient cells were then fixed and immunolabelled for the nuclear membrane protein SUN2. The amounts of EV-derived CD9-GFP in the nuclear compartments were analyzed by confocal laser scanning microscopy and quantified using Fiji software. Nuclear CD9-GFP was evaluated from 50 cells per condition and a representative experiment with mean±S.D. are shown. P values are indicated. N.s., not significant.

[11] = system: host cells; assay: NEI-associated late endosomes and nuclear transfer of EV-derived components after importazole treatment; format: cell-based
Source text: Referring to FIGS. 1A, 1B and 1C, illustrate data showing the localization and tripartite structure of a VOR complex. […] Typically, EVs are transported to late endosomes after their endocytosis, wherein the EVs facilitate intercellular communication in diverse cellular processes.

| Compound | toxicity for cells (MTS, viable cells) [1] | toxicity for cells (MTS, viable cells) [2] | co-immunoisolation of Rab7 with ORP3 (Rab7/VAP-A ratio) [3] | transport of HIV-1 integrase into the nucleoplasmic reticulum (IN-2 immunoreactivity in NEI) [4] | co-immunoisolation of Rab7 with ORP3 (Rab7/VAP-A ratio) [5] | morphological transformation (rounded or blebbed) induced by EVs from metastatic SW620 cells [6] | Rab7 and cholesterol in SUN2+ NEI [7] | entry of Rab7+ late endosomes in NEI [7] | migration of SW480 cells induced by EVs [8] | Gag-iGFP expression (productive infection) [9] | nuclear transfer of EV cargo (EV-derived CD9-GFP in nuclear compartments) [10] | NEI-associated late endosomes [11] | transfer of EV-derived components into the nucleoplasm of host cells [11] |
| --- | --- | --- | --- | --- | --- | --- | --- | --- | --- | --- | --- | --- | --- |
| O=c1[nH]ncn1-c1ccc(Cl)cc1 [compound 3, 4-(4-Chlorophenyl)-2,4-dihydro-3H-1,2,4-triazol-3-one] | not toxic | not toxic | do not | detected in NEI | do not | – | – | – | – | – | – | – | – |
| CCC(C)n1ncn(-c2ccc(Cl)cc2)c1=O (centres unmarked) [compound 5, 2-(butan-2-yl)-4-(4-chlorophenyl)-2,4-dihydro-3H-1,2,4-triazol-3-one] | not toxic | not toxic | inhibit the co-immunoisolation of Rab7 | inhibit the transport of HIV-1 integrase into the nucleoplasmic reticulum | inhibits the co-immunoisolation of Rab7 | inhibited the morphological transformation | absence of Rab7 and cholesterol | inhibited | inhibit the migration | reduction in Gag-iGFP expression | inhibited the nuclear transfer of EV cargo | – | – |
| CC(Nc1nc(N2CCCC2)nc2ccccc12)c1ccccc1 (centres unmarked) [importazole] | – | – | – | – | – | – | – | – | – | – | – | lack of the NEI-associated late endosomes | inhibition of transfer |
| CC(=O)N1CCN(c2ccc(OCC3COC(Cn4ccnc4)(c4ccc(Cl)cc4Cl)O3)cc2)CC1 (centres unmarked) [ketoconazole, reference compound] | – | – | do not | – | do not | – | – | – | – | – | – | – | – |

Source: patent US20230321082A1, “USE OF TRIAZOLE ANALOGUES FOR INHIBITION OF A TRIPARTITE VOR PROTEIN COMPLEX IN MULTICELLULAR ORGANISMS” (TECHNISCHE UNIVERSITÄT DRESDEN, priority 2020, published 2023)
